The values below come from PubChem BioAssay AID328 (DTP/NCI, 2004).

In the assay the test system is BDF1 mice, P388 leukemia ip, median survival T/C. Put plainly: NCI In Vivo Anticancer Drug Screen. Data for tumor model P388 Leukemia (intraperitoneal) in B6D2F1 (BDF1) mice. The settings on record: endpoint: median survival time, higher = longer survival. An outline of the steps: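 Steps: implant the tumour, treat one group with compound and another with vehicle, record survival, then divide treated by control.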

Where [1] appears, read: dose: 50.0 mg/kg/injection, schedule: Q01DX009 (ip), vehicle: saline with Tween-80.
The mark [2] stands for this setting: dose: 100.0 mg/kg/injection, schedule: Q01DX009 (ip), vehicle: saline with Tween-80.
Setting [3] is: dose: 100.0 mg/kg/injection, schedule: Q04DX003 (ip), vehicle: saline with Tween-80.
Setting [4] is: dose: 200.0 mg/kg/injection, schedule: Q01DX009 (ip), vehicle: saline with Tween-80.
The mark [5] stands for this setting: dose: 200.0 mg/kg/injection, schedule: Q04DX003 (ip), vehicle: saline with Tween-80.
The mark [6] stands for this setting: dose: 50.0 mg/kg/injection, schedule: Q01DX009 (ip), vehicle: saline.
Setting [7] is: dose: 100.0 mg/kg/injection, schedule: Q01DX009 (ip), vehicle: saline.
Setting [8] is: dose: 200.0 mg/kg/injection, schedule: Q01DX009 (ip), vehicle: saline.
[9] abbreviates: dose: 400.0 mg/kg/injection, schedule: Q01DX009 (ip), vehicle: saline with Tween-80.
The mark [10] stands for this setting: dose: 12.5 mg/kg/injection, schedule: Q01DX009 (ip), vehicle: saline with Tween-80.
Where [11] appears, read: dose: 25.0 mg/kg/injection, schedule: Q01DX009 (ip), vehicle: saline with Tween-80.
The mark [12] stands for this setting: dose: 25.0 mg/kg/injection, schedule: Q04DX003 (ip), vehicle: saline with Tween-80.
The mark [13] stands for this setting: dose: 50.0 mg/kg/injection, schedule: Q04DX003 (ip), vehicle: saline with Tween-80.
The mark [14] stands for this setting: dose: 100.0 mg/kg/injection, schedule: Q04DX003 (ip), vehicle: Klucel (hydroxypropylcellulose) (HPC).
[15] abbreviates: dose: 200.0 mg/kg/injection, schedule: Q04DX003 (ip), vehicle: Klucel (hydroxypropylcellulose) (HPC).
The mark [16] stands for this setting: dose: 400.0 mg/kg/injection, schedule: Q04DX003 (ip), vehicle: Klucel (hydroxypropylcellulose) (HPC).

The structures appear in SMILES notation. Values joined by “and” are separate entries in the source; they are usually repeats but may differ in a detail not shown here. Identical values can stand only once. Toxic doses and inconclusive results are not listed. Residues, ends and D or L forms follow the SMILES beside them. *: point of attachment. Cbz = O=C(OCc1ccccc1)*; Bn = c1ccc(C*)cc1

With `COc1ccc([I+]c2ccccc2)cc1`, the T/C (dose: 1.56 mg/kg/injection, schedule: Q01DX009 (ip), vehicle: saline) was 87 % of control; the T/C (dose: 3.13 mg/kg/injection, schedule: Q01DX009 (ip), vehicle: saline) was 104 % of control; the T/C (dose: 6.25 mg/kg/injection, schedule: Q01DX009 (ip), vehicle: saline) was 112 % of control and 120 % of control; the T/C (dose: 12.5 mg/kg/injection, schedule: Q04DX003 (ip), vehicle: saline sonified) is 105 % of control; the T/C (dose: 25.0 mg/kg/injection, schedule: Q04DX003 (ip), vehicle: saline sonified) was 110 % of control.

`CSc1ncnc2c1ncn2CCCl`: the T/C was 91 % of control under setting [1]; 87 % of control under setting [2]; 95 % of control under setting [3]; 91 % of control under setting [4]; 100 % of control under setting [5].

With `C=CC(=O)NCCCC(=O)O`, the T/C under setting [6] is 94 % of control, the T/C under setting [7] is 91 % of control and the T/C under setting [8] was 100 % of control.

On to `CC(C)CCNc1ccc(NCCC(C)C)cc1`, for which the T/C reads like this: (dose: 2.34 mg/kg/injection, schedule: Q01DX009 (ip), vehicle: alcohol) 100 % of control; (dose: 4.68 mg/kg/injection, schedule: Q01DX009 (ip), vehicle: alcohol) 100 % of control; (dose: 9.37 mg/kg/injection, schedule: Q01DX009 (ip), vehicle: alcohol) 112 % of control; (dose: 13.75 mg/kg/injection, schedule: Q04DX003 (ip), vehicle: alcohol) 109 % of control; (dose: 18.75 mg/kg/injection, schedule: Q01DX009 (ip), vehicle: alcohol) 122 % of control; (dose: 27.5 mg/kg/injection, schedule: Q04DX003 (ip), vehicle: alcohol) 109 % of control.

Regarding `NCCOCC(N)C(=O)O` (stereo not given), the T/C runs as follows: under setting [6], 109 % of control; under setting [7], 105 % of control; under setting [8], 98 % of control.

Regarding `O=C(CC(NC(=O)OCc1ccccc1)C(=O)OCc1ccccc1)OCc1ccccc1` (stereo not given), the T/C was 97 % of control under setting [2], 108 % of control under setting [4] and 97 % of control under setting [9].

Regarding `Cc1cccc(NC(=O)c2ccccc2)n1`, the T/C was 91 % of control under setting [10], 91 % of control under setting [11] and 104 % of control under setting [1].

For `O=C(O)c1cc(-c2ccccc2)[nH]c1-c1ccccc1`, under setting [6], the T/C is 90 % of control.

On to `O=C(C=C(C(F)(F)F)C(F)(F)F)c1cccc(Cl)c1`, for which the T/C is 122 % of control (dose: 6.25 mg/kg/injection, schedule: Q01DX009 (ip), vehicle: saline with Tween-80) and 100 % of control under setting [10].

In the case of `CCC(=O)/C=C/c1ccc(Cl)cc1`, the T/C reads like this: under setting [1], 110 % of control; under setting [2], 109 % of control; under setting [4], 107 % of control.

In the case of `CC(=O)NCc1ccc([N+](=O)[O-])cc1`, the T/C under setting [11] was 103 % of control; the T/C under setting [12] is 111 % of control; the T/C under setting [1] is 103 % of control; the T/C under setting [13] was 115 % of control; the T/C under setting [2] is 100 % of control; the T/C under setting [3] is 111 % of control. In addition, the T/C is, setting by setting: under setting [4], 119 % of control; under setting [5], 109 % of control; under setting [9], 95 % of control; (dose: 400.0 mg/kg/injection, schedule: Q04DX003 (ip), vehicle: saline with Tween-80) 118 % of control.

For `CCN1CC[N+](C)(CC)Cc2ccccc21` (stereo not given), the T/C is 90 % of control (dose: 12.5 mg/kg/injection, schedule: Q04DX003 (ip), vehicle: saline with Tween-80) and 93 % of control under setting [12].

`CS(=O)(=O)Nc1ccc(Nc2c3ccccc3nc3cc(N)ccc23)cc1`: the T/C (dose: 0.22 mg/kg/injection, schedule: Q01DX009 (ip), vehicle: saline) is 205 % of control; the T/C (dose: 0.33 mg/kg/injection, schedule: Q01DX009 (ip), vehicle: saline) is 205 % of control; the T/C (dose: 0.44 mg/kg/injection, schedule: Q04DX003 (ip), vehicle: saline) is 159 % of control; the T/C (dose: 0.5 mg/kg/injection, schedule: Q01DX009 (ip), vehicle: saline) is 222 % of control; the T/C (dose: 0.56 mg/kg/injection, schedule: Q01DX009 (ip), vehicle: saline) was 222 % of control; the T/C (dose: 0.66 mg/kg/injection, schedule: Q04DX003 (ip), vehicle: saline) was 168 % of control. Also, the T/C (dose: 0.75 mg/kg/injection, schedule: Q01DX009 (ip), vehicle: saline) is 253 % of control; the T/C (dose: 0.83 mg/kg/injection, schedule: Q01DX009 (ip), vehicle: saline) is 275 % of control; the T/C (dose: 1.0 mg/kg/injection, schedule: Q04DX003 (ip), vehicle: saline) is 154 % of control; the T/C (dose: 1.25 mg/kg/injection, schedule: Q01DX009 (ip), vehicle: saline) was 268 % of control and 271 % of control; the T/C (dose: 1.5 mg/kg/injection, schedule: Q04DX003 (ip), vehicle: saline) was 190 % of control; the T/C (dose: 1.87 mg/kg/injection, schedule: Q01DX009 (ip), vehicle: saline) was 111 % of control. Moreover, the T/C is 97 % of control (dose: 2.5 mg/kg/injection, schedule: Q01DX009 (ip), vehicle: saline); 245 % of control (dose: 2.9 mg/kg/injection, schedule: Q04DX003 (ip), vehicle: saline); 168 % of control (dose: 4.4 mg/kg/injection, schedule: Q04DX003 (ip), vehicle: saline); 281 % of control (dose: 6.6 mg/kg/injection, schedule: Q04DX003 (ip), vehicle: saline); 195 % of control (dose: 10.0 mg/kg/injection, schedule: Q04DX003 (ip), vehicle: saline).

On to `CC(C)CC(NC(=O)C1CCCN1C(=O)C(CSCc1ccccc1)NC(=O)OCc1ccccc1)C(=O)NCC(N)=O` (stereo not given) (Cbz-C(Bn)PLG-NH2; configuration not given here), for which the T/C reads like this: under setting [14], 99 % of control; under setting [15], 95 % of control; under setting [16], 87 % of control.

On to `Cn1ncc2c(NCCc3ccccc3)ncnc21`, for which the T/C reads like this: under setting [11], 100 % of control; under setting [1], 100 % of control.

Take `COc1ccc2c(c1)CCC(=O)O2`: the T/C (dose: 100.0 mg/kg/injection, schedule: Q04DX003 (ip), vehicle: saline sonified) was 91 % of control; the T/C (dose: 200.0 mg/kg/injection, schedule: Q04DX003 (ip), vehicle: saline sonified) was 95 % of control; the T/C (dose: 400.0 mg/kg/injection, schedule: Q04DX003 (ip), vehicle: saline sonified) is 100 % of control.

For `CCOC(=O)C(=CN(C(C)C)C(C)C)C(=O)OCC`, the T/C was 109 % of control under setting [13], 104 % of control under setting [3] and 109 % of control under setting [5].

Take `O=C(COc1ccccc1)NCCO`: the T/C is 100 % of control (dose: 100.0 mg/kg/injection, schedule: Q01DX009 (ip), vehicle: Klucel (hydroxypropylcellulose) (HPC)); 91 % of control under setting [14]; 100 % of control (dose: 200.0 mg/kg/injection, schedule: Q01DX009 (ip), vehicle: Klucel (hydroxypropylcellulose) (HPC)); 91 % of control under setting [15]; 100 % of control (dose: 400.0 mg/kg/injection, schedule: Q01DX009 (ip), vehicle: Klucel (hydroxypropylcellulose) (HPC)); 91 % of control under setting [16].

`CC(C)[C@]12O[C@H]1[C@@H]1O[C@]13[C@]1(O[C@H]1C[C@H]1C4=C(CC[C@@]13C)C(=O)OC4)[C@@H]2O`: the T/C was 118 % of control (dose: 26.0 micrograms/kg/injection, schedule: Q01DX009 (ip), vehicle: saline); 118 % of control (dose: 40.0 micrograms/kg/injection, schedule: Q01DX009 (ip), vehicle: saline); 100 % of control (dose: 60.0 micrograms/kg/injection, schedule: Q01DX009 (ip), vehicle: saline); 109 % of control (dose: 89.0 micrograms/kg/injection, schedule: Q01DX009 (ip), vehicle: saline); 100 % of control (dose: 133.0 micrograms/kg/injection, schedule: Q01DX009 (ip), vehicle: saline).
